Counter-ions that a name gives are not always drawn.
Assays:
hecNOS = hecNOS (Homo sapiens, UniProt P29474); test: Citrulline Assay for Nitric Oxide Synthase, Human in vitro Enzyme Data, hecNOS; type: biochemical
[1] = system: endotoxin (LPS) induced rise in plasma nitrites; test: In Vivo Assay: plasma nitrites after endotoxin (Low Dose LPS); parameters: species or system Rats; conditions: plasma nitrites 5 hours post-treatment
Description: Rats were treated with an intraperitoneal injection of 10 mg/kg of endotoxin (LPS) with or without oral administration of the nitric oxide synthase inhibitors.

hnaNOS = hnaNOS (Homo sapiens, UniProt P29475); test: Citrulline Assay for Nitric Oxide Synthase, Human in vitro Enzyme Data, hnaNOS; type: biochemical
hiNOS = hiNOS (Homo sapiens, UniProt P35228); test: Citrulline Assay for Nitric Oxide Synthase, Human in vitro Enzyme Data, hiNOS; type: biochemical

In the case of `Cc1noc(=O)n1CCCC[C@H](N)C(=O)O` [Example 2, αS-amino-4,5-dihydro-3-methyl-5-oxo-1,2,4-oxadiazole-4-hexanoic acid, monohydrochloride], the IC50 (hecNOS) is reported as 1140 µM, the “Low Dose LPS in vivo Effective Dose (i.v.), inh.” value ([1]; i.v., 3 mg/kg/day) is reported as 83% and the “Low Dose LPS in vivo Effective Dose (p.o.), inh.” value ([1]; 3 mg/kg/day) is reported as 39%. For the same molecule, the “Low Dose LPS in vivo Effective Dose (p.o.), inh.” value ([1]; 10 mg/kg/day) was 42%, the IC50 (hnaNOS) was 159 µM and the IC50 (hiNOS) was 138 µM.
